# Data from patent publication US20060177517A1, “Antiinflammtory agent and antiinflammatory medical material” (priority 2003, published 2006).
# How the values were obtained:
# [1] = test system: Streptococcus mutans JC2 strain; assay: Suppression of intraoral bacteria growth, absorbance at 595 nm; type: cell-based; conditions: 24 hours after treatment
# Protocol: A test of suppression of bacterial growth with the polyphosphoric acid obtained according to the above production example was conducted using intraoral bacteria, Streptococcus mutans (S. mutans) and Porphylomonas gingivalis (P gingivalis). The S. mutans JC2 strain was anaerobically cultured at 37° C. using Heart infusion media. For the treated groups, polyphosphoric acid was added to the culture solutions at different concentrations (0%, 0.06%, and 0.5%). For comparison groups, phosphate buffers were added at different concentrations (0%, 0.06%, and 0.5%) to culture solutions. The bacteria were cultured for a maximum of 2 days. […] In the meantime, the P. gingivalis ATCC33277 strain was anaerobically cultured using brain-heart-infusion media at 37° C. for the same time period as employed above by adding polyphosphoric acid at different concentrations (0%, 0.015%, 0.03%, 0.06%, 0.12%, 0.25%, and 0.5%) to culture solutions. Bacterial growth was observed over time by measuring absorbance at 595 nm.
# human neutrophils = assay: IL-1β production by human neutrophils treated with GMDP and/or polyphosphoric acid (ELISA); type: cell-based
# Protocol: To confirm the effect of suppressing inflammatory cytokine production with the polyphosphoric acid obtained according to the above production example, an experiment was conducted to observe IL-1β production using human neutrophils. Neutrophils were separated from 25 ml of human blood and then suspended in a Dulbecco's Modified Eagle's Medium. […] Treatment was carried out for maximum of 5 hours at 37° C. […] The IL-1β production amount at each time point was measured using an ELISA Kit.
# [2] = test system: P. gingivalis ATCC33277 strain; assay: Suppression of intraoral bacteria growth, absorbance at 595 nm; type: cell-based, Porphylomonas gingivalis; conditions: polyphosphoric acid concentration of 0.01%, 48 hours after treatment
# Protocol: A test of suppression of bacterial growth with the polyphosphoric acid obtained according to the above production example was conducted using intraoral bacteria, Streptococcus mutans (S. mutans) and Porphylomonas gingivalis (P gingivalis). The S. mutans JC2 strain was anaerobically cultured at 37° C. using Heart infusion media. For the treated groups, polyphosphoric acid was added to the culture solutions at different concentrations (0%, 0.06%, and 0.5%). For comparison groups, phosphate buffers were added at different concentrations (0%, 0.06%, and 0.5%) to culture solutions. […] Bacterial growth was observed over time by measuring absorbance at 595 nm.
# [3] = test system: periodontal tissue inflammation; assay: Suppression of periodontal tissue inflammation in rat artificial periodontal pockets (HE staining); type: in vivo, Wister rats; conditions: approx. 0.1 ml of 1% solution injected into gingival crevice every day for 10 days
# Protocol: Male Wister rats (8-week-old; 10 rats in total) were anesthetized, and then the periosteum of the alveolar part of maxillary first molar tooth was stripped. Portions of approximately 2 mm were eliminated from the buccal alveolar apexes of the maxillary first molar tooth and of the maxillary second molar tooth, using a ½ round bar, thereby forming artificial periodontal pockets (gingival crevices). In the case of the treated group (5 rats), approximately 0.1 ml of 1% polyphosphoric acid solution was injected into each gingival crevice using a syringe. Furthermore, in the case of the comparison group (5 rats), only a 1% phosphate buffer was injected. This injection procedure was carried out every day for 10 days from the day following the operation for the preparation of gingival crevices. Rats that had been treated for a certain time period were euthanized under inhalation anesthesia (ether). The maxilla bones were amputated, and then the tissues were fixed for 1 day by immersion using 10% neutral buffered formalin (pH 7.4). Subsequently, the resultants were subjected to acid demineralization at room temperature for approximately 2 days. After completion of demineralization, the samples were trimmed by excision at the second molar tooth, and then paraffin-embedded with their cut surfaces positioned downward. […]
# [4] = test system: inflammation at wound site; assay: Suppression of inflammation at wound site, rat dorsal wound model (HE staining); type: in vivo, Wistar rat; conditions: 1% solution locally injected 5 days a week
# From the text: The dorsum of each 6-week-old male Wistar rat was shaved under ether anesthesia, and then a 20-mm incision was made along the long axis of the body with a depth reaching to the fascia. Both ends of the center of the wound were stitched to the fascia using a piece of string so as to produce a 5-mm-wide spindle-shaped wound model (FIG. 4). A 1% polyphosphoric acid solution was locally injected 5 days a week into each wound of the rats in the treated group. A 1% phosphate buffer was locally injected 5 days a week into each wound of the rats in the comparison group. The rats were euthanized on days 3 and 7. Tissue located in the area extending from 5 mm to the left of and 5 mm to the right of the wound center was obtained by excising skin on the fascia as shown in FIG. 4. The tissues were subjected to HE staining and then histopathological observance was carried out.
molecule,measurement,setting,value
"O=P(O)(O)O [phosphoric acid, reference compound]",bacterial growth of S. mutans,[1]; phosphoric acid concentration of 0.5%,no large changes
polyphosphoric acid,IL-1β production amount,"human neutrophils; GMDP plus polyphosphoric acids (0.2, 1, 5 mM), 5 hours after treatment",decreased depending on the concentrations of the polyphosphoric acids
same,IL-1β production amount,"human neutrophils; GMDP plus polyphosphoric acids (0.2, 1, 5 mM), until 3 hours after treatment, versus GMDP alone",suppressed to a level similar to that of the comparison group
same,IL-1β production amount,"human neutrophils; polyphosphoric acids alone (0.2, 1, 5 mM), no GMDP",almost the same at any polyphosphoric acid concentration as that in the case of the comparison group
same,bacterial growth of P. gingivalis,[2],significantly suppressed bacterial growth
same,inflammatory cells in the peripheries of the treated sites,[3],Almost no inflammatory cells were observed
same,extension of the epithelia toward the centers of the wounds,[4]; day 3 after operation,significant extension
same,infiltration by inflammatory cells at the wound,[4]; day 3 after operation,infiltration by inflammatory cells decreased
same,epithelialization of the wound surfaces,[4]; day 7 after operation,almost completely epithelialized
same,"extension of the epithelia at the cut ends of the wounds, compared with the comparison group",[4]; day 7 after operation,promoted
same,inflammation at the centers of the wounds,[4]; day 7 after operation,inflammation remained slight and partial on the upper parts
same,bacterial growth of S. mutans,[1]; polyphosphoric acid concentration of 0.06%,significantly suppressed bacterial growth
"CC(=O)NC1C(OC2C(CO)OC(O)C(NC(C)=O)C2OC(C)C(=O)NC(C)C(=O)NC(CCC(=O)O)C(N)=O)OC(CO)C(O)C1O [GMDP, N-Acetyl-D-Glucosaminyl-β(1-4)-N-acetylmuramyl-L-alanyl-D-isoglutamine, reference compound]",IL-1β production amount,"human neutrophils; 30 μg GMDP alone, up to 5 hours",increased with time
